Assay [1] has as its system HT-1080 cells. As to the kind of experiment: Cellular dose response assay, HT-1080 with and without Fer-1. The following applies: for Selectivity: ferroptosis selectivity; for ferroptosis induction / potency in HT-1080 cells, result in words: RSL3 as control. The assay is classed as cell-based, human. In short, it runs like this:
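Cells were seeded at 1500 per well, grown overnight, then treated in triplicate with 12-point 2-fold compound dilutions (0.4% DMSO final) for 48 h at 37 °C, 5% CO2. HT-1080 series were run with and without Fer-1. Viability was read by CellTiter-Glo luminescence.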

Assay [2] addresses T1, GPX4 (Homo sapiens, UniProt P36969).
T1 sequence (P36969 1-170 isoform P36969-2): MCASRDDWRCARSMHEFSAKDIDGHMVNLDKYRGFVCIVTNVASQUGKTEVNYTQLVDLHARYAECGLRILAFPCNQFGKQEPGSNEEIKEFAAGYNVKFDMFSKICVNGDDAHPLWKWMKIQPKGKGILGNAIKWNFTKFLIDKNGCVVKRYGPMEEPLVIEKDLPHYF
The assay can be described thus: GPX4 activity assay in cell lysates (NADPH-coupled). The assay is classed as biochemical. Also noted: endogenous in cells; host or cells: A-673 cell lysate. A digest of the protocol:
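Native GPX4 in lysates of A-673 cells grown with 20 nM sodium selenite; lysate preincubated with compound 45 min at 37 °C in pH 8.0 buffer with 3 mM GSH, 0.5 mM NADPH and glutathione reductase. Reaction started with phosphatidylcholine hydroperoxide; NADPH consumption followed at 340 nm over 25 min; triplicates.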

Where [3] appears, read: HT1080 + Fer-1, read-out: IC50 (uM) HT1080 + Fer-1.
Setting [4] is: HT1080, without Fer-1, read-out: IC50 (uM) HT1080.
Setting [5] is: with Fer-1, Table 10, read-out: IC50 (μM) HT1080 + Fer-1.
The mark [6] stands for this setting: without Fer-1, Table 10, read-out: IC50 (μM) HT1080.

Each structure is given as a SMILES string. “Also recorded” adds a separate entry of the source. Like-named read-outs stand apart in the source and are kept apart here.

With `Cn1nc(C(=O)NC(C)(C)C(C)(C)OC(=O)CCl)c2ccc(-c3ccc(N4CCOCC4)c(Cl)c3)cc21` [QW-731], the IC50 came to 2.8 µM in assay [1] (setting [3]) and 1.2 µM in assay [1] (setting [4]). For the same compound, the Selectivity in assay [1] (HT1080 + Fer-1 vs HT1080) came out at 2.3. Further, the “GPX4% inhibition at 2.5 μM” value in assay [2] worked out at 68.5 ± 9.4%.
Regarding `COc1ccc(-c2ccc3c(-n4cc(CCOC(=O)CCl)nn4)nn(C)c3c2)cc1Cl` [QW-755], the IC50 in assay [1] (setting [3]) was found to be 23.9 µM; in assay [1] (setting [4]), 9.5 µM. Moreover, the Selectivity in assay [1] (HT1080 + Fer-1 vs HT1080) was 2.5. Besides, the “GPX4% inhibition at 2.5 μM” value in assay [2] is 43.2 ± 14.9%.
Take `COc1ccc(-c2ccc3c(C(=O)NC(C)(C)C(C)(C)OC(=O)CCl)nn(C)c3c2)cc1Br` [QW-766]: the IC50 is 2.5 µM in assay [1] (setting [3]) and 1.2 µM in assay [1] (setting [4]). Moreover, the Selectivity in assay [1] (HT1080 + Fer-1 vs HT1080) came to 2.1. The “GPX4% inhibition at 2.5 μM” value in assay [2] is −31.1 ± 29.6%.
Regarding `Cn1nc(C(=O)NC(C)(C)C(C)(C)OC(=O)CCl)c2ccc(-c3ccc(OC(C)(C)C)cc3)cc21` [QW-770], the IC50 in assay [1] (setting [3]) was 2.2 µM; in assay [1] (setting [4]) it was 1 µM. Also, in assay [1] (HT1080 + Fer-1 vs HT1080), the Selectivity came out at 2.2. The “GPX4% inhibition at 2.5 μM” value in assay [2] is −36.4 ± 19.3%.
For the compound `COc1ccc(-c2ccc3c(C(=O)NCC(C)(C)OC(=O)CCl)nn(C)c3c2)cc1Cl` [QW-774], the figures for the IC50 in assay [1] (setting [3]) and in assay [1] (setting [4]) were 8.8 µM and 3.7 µM, respectively. The Selectivity in assay [1] (HT1080 + Fer-1 vs HT1080) was 2.4. Moreover, the “GPX4% inhibition at 2.5 μM” value in assay [2] is −25.3 ± 6.9%.
As for `Cn1nc(C(=O)NC(C)(C)C(C)(C)OC(=O)CCl)c2ccc(-c3ccc(C(F)(F)F)c(Cl)c3)cc21` [QW-786], the values for the IC50 in assay [1] (setting [3]) and in assay [1] (setting [4]) were 5.8 µM and 2.4 µM, respectively. For the same compound, the Selectivity in assay [1] (HT1080 + Fer-1 vs HT1080) is recorded as 2.6. Moreover, in assay [2], the “GPX4% inhibition at 2.5 μM” value was 31.7 ± 19.5%.
The like results for `COc1ccc(-c2ccc3c(-n4cc(C(C)(C)CNC(=O)CCl)nn4)nn(C)c3c2)cc1Cl` [QW-792] were, in that order, 5.8 µM, 1.1 µM, 5.3 and −19.6 ± 18.2%.
As to `COc1c(F)cc(-c2ccc3c(C(=O)NC(C)(C)C(C)(C)OC(=O)CCl)nn(C)c3c2)cc1Cl` [QW-796], the IC50 is 2.6 µM in assay [1] (setting [3]) and 2.4 µM in assay [1] (setting [4]). Further, in assay [1] (HT1080 + Fer-1 vs HT1080), the Selectivity is 1.1. Moreover, the “GPX4% inhibition at 2.5 μM” value in assay [2] worked out at 4.6 ± 14.4%.
With `COc1c(F)cc(-c2ccc3c(-n4cc(C(C)(C)COC(=O)CCl)nn4)nn(C)c3c2)cc1Cl` [QW-801], the IC50 is 14.3 µM in assay [1] (setting [3]) and 8.4 µM in assay [1] (setting [4]). The Selectivity in assay [1] (HT1080 + Fer-1 vs HT1080) is given as 1.7. Further, the “GPX4% inhibition at 2.5 μM” value in assay [2] was found to be 58.1 ± 9.2%.
In the case of `COc1ccc(-c2ccc3c(C(=O)NC(C)(C)C(C)(C)OC(=O)CCl)nn(Cc4ccc(Cl)cc4)c3c2)cc1Cl` [QW-809], the Selectivity in assay [1] (IC50 with Fer-1 / IC50) is listed as 1.5. For the same compound, the IC50 in assay [1] (setting [5]) turned out to be 6.5 µM; in assay [1] (setting [6]), 4.2 µM. In addition, the “GPX4% inhibition at 2.5 μM” value in assay [2] (4th generation) is 34.6 ± 29.6%.
Consider `COc1c(Cl)cc(-c2ccc3c(C(=O)NC(C)(C)C(C)(C)OC(=O)CCl)nn(C)c3c2)cc1C(F)(F)F` [QW-813], for which the IC50 in assay [1] (setting [3]) turned out to be 3 µM; in assay [1] (setting [4]), 2.1 µM. Further, in assay [1] (HT1080 + Fer-1 vs HT1080), the Selectivity is reported as 1.4. In addition, the “GPX4% inhibition at 2.5 μM” value in assay [2] was −17.0 ± 28.7%.
On to `COc1c(Cl)cc(-c2ccc3c(C(=O)NC(C)(C)COC(=O)CCl)nn(C)c3c2)cc1C(F)(F)F` [QW-815], for which the IC50 came out at 16.7 µM in assay [1] (setting [3]) and 0.58 µM in assay [1] (setting [4]). Besides, the “ferroptosis induction / potency in HT-1080 cells, result in words” value in assay [1] was “sub-molar range cellular activities and decreased ferroptosis selectivity”. Also, the Selectivity in assay [1] (HT1080 + Fer-1 vs HT1080) stood at 28.8. The “GPX4% inhibition at 2.5 μM” value in assay [2] is on record as 79.3 ± 5.5%.
As to `COc1ccc(-c2ccc3c(C(=O)NC(C)(C)COC(=O)CCl)nn(Cc4ccc(Cl)cc4)c3c2)cc1Cl` [QW-823], in assay [1], the “ferroptosis induction / potency in HT-1080 cells, result in words” value was “good potency in cell and selectivity to GPX4; also recorded: outstanding cytotoxicity with sub-molar scale”. Besides, in assay [1] (IC50 with Fer-1 / IC50), the Selectivity worked out at 34.5. For the same compound, the 50% inhibitory concentration (IC50) turned out to be 11.4 µM in assay [1] (setting [5]) and 0.33 µM in assay [1] (setting [6]). The “GPX4 inhibitory activity, result in words” value in assay [2] is recorded as “greater GPX4 inhibitory activity than QW-446”. Also, the “GPX4% inhibition at 2.5 μM” value in assay [2] (4th generation) is listed as 95.0 ± 13.1%.

Source of the values: US20250248979A1, “NOVEL GPX4 INHIBITORS AND USES THEREOF” (THE TRUSTEES OF COLUMBIA UNIVERSITY IN THE CITY OF NEW YORK, priority 2022, published 2025).
